Test results: US6830760B2, “Glyburide composition” (Bristol-Myers Squibb Company, priority 2000, dated 2004)

Test: Glyburide particle size by laser light scattering / laser diffraction
Format: physicochemical
Conditions: drug substance, laser diffraction particle size analysis
Description: Data from studies with metformin hydrochloride/glyburide tablets formulated with glyburide of different particle size characteristics allowed for the development of a correlation between glyburide particle size and the in vivo performance. The desired particle size distribution may be obtained by sieving or, preferably, air jet milling, and was measured by a laser light scattering method. The particle size measurement method of laser light scattering uses drug substance dispersed in liquid paraffin for introduction into the measurement cell. The apparatus produces a volume based, cumulative size distribution. […] The mill was operated with a Venturi nitrogen pressure of approximately 1.5 atmospheres and a micronization chamber pressure of 4 atmospheres. Size reduction was not allowed to proceed to the extent normally employed to make glyburide that would be described as micronized. The mill was turned off and the drug substance was discharged from it. A sample of the size-reduced glyburide was evaluated by a laser diffraction particle size analysis method.

For COc1ccc(Cl)cc1C(=O)NCCc1ccc(S(=O)(=O)NC(=O)NC2CCCCC2)cc1 [Example 1, 5-chloro-N-[2-[4-[[[(cyclohexylamino)-carbonyl]amino]sulfonyl]phenyl]ethyl]-2-methoxybenzamide], the D25% was 5 microns, the D50% was 9 microns and the D75% was 21 microns.
In the case of COc1ccc(Cl)cc1C(=O)NCCc1ccc(S(=O)(=O)NC(=O)NC2CCCCC2)cc1 [commercially available micronized sample], the D25% is reported as 2.8 microns, the D50% is reported as 4.5 microns and the D75% is reported as 7.3 microns.
